Where two headings read alike, the source gives them in different places.
Key:
isomerase = isomerase (Mus musculus (Mouse), UniProt Q91ZQ5); test: In vivo murine isomerase assay (recovery of 11-cis-retinal after photobleaching); design: species or system mice; details: for inhibition at 1 mg/kg: read-out: % Inhibition 1 mg/kg, 4 h; for ED50: in vivo inhibition of isomerase, Table 10
Method: The capability of compounds described herein to inhibit isomerase was determined by an in vivo murine isomerase assay. Brief exposure of the eye to intense light (“photobleaching” of the visual pigment or simply “bleaching”) is known to photo-isomerize almost all 11-cis-retinal in the retina. The recovery of 11-cis-retinal after bleaching can be used to estimate the activity of isomerase in vivo. Delayed recovery, as represented by lower 11-cis-retinal oxime levels, indicates inhibition of isomerization reaction.
The mice were allowed to recover 2 hours in the dark. The animals were then sacrificed by carbon dioxide inhalation. Retinoids were extracted from the eye and the regeneration of 11-cis-retinal was assessed at various time intervals.
After the mice were sacrificed, the eyes were immediately removed and placed in liquid nitrogen for storage.
The eyes were placed in 500 μL of bis-tris propane buffer (10 mM, pH ˜7.3) and 20 µL of 0.8M hydroxile amine (pH-7.3). The eyes were cut up into small pieces with small iris scissors and then thoroughly homogenized at 30000 rpm with a mechanical homogenizer (Polytron PT 1300 D) in the tube until no visible tissue remained. 500 μL of methanol and 500 μL of heptane were added to each tube. The tubes were attached to a vortexer so that the contents were mixed thoroughly for 15 minutes in room temperature. The organic phase was separated from the aqueous phase by centrifugation for 10 min at 13K rpm, 4° C. 240 μL of the solution from the top layer (organic phase) was removed and transferred to clean 300 μl glass inserts in HPLC vials using glass pipette and the vials were crimped shut tightly.
Loading volume for each sample is 100 μl; detection wavelength is 360 nm. The area under the curve for 11-cis retinal oxime was calculated by Agilent Chemstation software and was recorded manually. Data processing was performed using Prizm software.
Positive control mice (no compound administered) were sacrificed fully dark-adapted and the eye retinoids analyzed. Light (bleached) control mice (no compound administered) were sacrificed and retinoids isolated and analyzed immediately after light treatment.
Mice were sacrificed 2 hours after bleaching, eyes were enucleated, and retinoid content was analyzed by HPLC.
Recovery control mice (vehicle-only treated) were light-treated and left to recover for 2 hours in the dark before sacrifice and analysis. Light control mice (vehicle only treated) were sacrificed for analysis immediately after photo-bleaching.

visual cycle isomerase = visual cycle isomerase (Bos taurus (Bovine), UniProt Q28175); test: Bovine in vitro isomerase inhibition assay (RPE microsome membranes)
Chain of visual cycle isomerase (Q28175 2-533): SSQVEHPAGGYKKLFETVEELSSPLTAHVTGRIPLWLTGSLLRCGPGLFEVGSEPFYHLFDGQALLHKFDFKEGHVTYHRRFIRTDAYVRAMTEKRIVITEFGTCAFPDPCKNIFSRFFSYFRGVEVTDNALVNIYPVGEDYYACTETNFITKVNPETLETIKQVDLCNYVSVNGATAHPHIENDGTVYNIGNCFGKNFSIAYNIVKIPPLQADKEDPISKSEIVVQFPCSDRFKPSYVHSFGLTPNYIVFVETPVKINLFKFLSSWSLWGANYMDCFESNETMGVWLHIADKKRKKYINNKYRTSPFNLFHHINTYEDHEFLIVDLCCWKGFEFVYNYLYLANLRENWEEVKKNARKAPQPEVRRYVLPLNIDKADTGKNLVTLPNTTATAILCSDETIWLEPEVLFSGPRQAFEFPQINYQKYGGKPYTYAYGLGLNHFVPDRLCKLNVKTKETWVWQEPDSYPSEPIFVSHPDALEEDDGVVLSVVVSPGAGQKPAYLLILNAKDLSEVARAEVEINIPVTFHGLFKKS
Method: The capability of compounds disclosed herein to inhibit the activity of a visual cycle isomerase was determined.
All tests were performed in duplicate.

[1] = target: recombinant human RPE65 and LRAT (Homo sapiens (Human), UniProt Q16518); test: Human in vitro isomerase inhibition assay; format: biochemical; details: Human in vitro Inhibition data; inhibition of 11-cis-retinol formation; HEK293 homogenate, all-trans-retinol about 20 μM, 37° C., one hour; given as ranges
Chain of recombinant human RPE65 and LRAT (Q16518 2-533): as the sequence (Q28175 2-533) above, with S2I, I135V, V154I, I299L, H320N, E321G, G426C counted along it
Method: The concentration dependent effect of the compounds disclosed herein on the retinol isomerization reaction was also evaluated with a recombinant human enzyme system. […] A homogenate of HEK293 cell clone expressing recombinant human RPE65 and LRAT were the source of the visual enzymes, and exogenous all-trans-retinol (about 20 μM) was used as the substrate. Recombinant human CRALBP (about 80 ug/mL) was added to enhance the formation of 11 cis-retinal. The 200 μL Bis-Tris Phosphate buffer (10 mM, pH 7.2) based reaction mixture also contains 0.5% BSA, and 1 mM NaPPi. In this assay, the reaction was carried out at 37° C. in duplicates for one hour and was terminated by addition of 300 μL methanol. The amount of reaction product, 11-cis-retinol, was measured by HPLC analysis following Heptane extraction of the reaction mixture. […] The ability of the numerous compounds disclosed herein to inhibit isomerization reaction is quantified and the respective IC50 value is determined.

[2] = Bovine in vitro Inhibition data, inhibition of 11-cis retinol formation, bovine RPE microsomes, 20 μM all-trans retinol, 37° C., 30 minutes, given as ranges

Chain of isomerase (Q91ZQ5 whole entry): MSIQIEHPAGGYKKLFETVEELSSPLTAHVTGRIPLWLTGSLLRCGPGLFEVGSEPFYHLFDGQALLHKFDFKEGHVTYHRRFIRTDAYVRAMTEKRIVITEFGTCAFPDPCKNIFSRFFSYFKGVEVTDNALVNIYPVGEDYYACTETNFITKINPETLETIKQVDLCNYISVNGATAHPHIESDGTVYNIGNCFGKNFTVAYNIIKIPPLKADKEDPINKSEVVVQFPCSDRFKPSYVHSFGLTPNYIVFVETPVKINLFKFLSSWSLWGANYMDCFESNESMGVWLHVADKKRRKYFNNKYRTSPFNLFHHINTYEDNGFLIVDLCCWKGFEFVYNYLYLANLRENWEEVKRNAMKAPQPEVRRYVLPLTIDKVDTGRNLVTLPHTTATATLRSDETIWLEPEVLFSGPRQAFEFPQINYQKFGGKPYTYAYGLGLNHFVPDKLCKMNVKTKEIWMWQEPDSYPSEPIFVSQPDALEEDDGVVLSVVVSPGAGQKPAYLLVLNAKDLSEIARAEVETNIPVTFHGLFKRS

Row | SMILES | inhibition at 1 mg/kg (isomerase) [%] | IC50 [1] [nM] | other results
1 | NCCCc1cccc(OCC2CCCCC2)c1 [Example 1, 3-(3-(Cyclohexylmethoxy)phenyl)propan-1-amine] | 68 |  | IC50 (visual cycle isomerase; [2]): ≤ 1000 nM
2 | CCCC(CCC)COc1cccc(CCCN)c1 [Example 2, 3-(3-(2-Propylpentyloxy)phenyl)propan-1-amine] | 1 |  | IC50 (visual cycle isomerase; [2]): ≤ 1000 nM
3 | CCC(CC)COc1cccc(CCCN)c1 [Example 3, 3-(3-(2-Ethylbutoxy)phenyl)propan-1-amine] | 12 |  | IC50 (visual cycle isomerase; [2]): ≤ 1000 nM
4 | NCCC(=O)c1cccc(OCC2CCCCC2)c1 [Example 5, 3-Amino-1-(3-(cyclohexylmethoxy)phenyl)propan-1-one] |  |  | ED50 (isomerase): 1 mg/kg; IC50 (visual cycle isomerase; [2]): ≤ 1000 nM
5 | NCC(O)Cc1cccc(OCC2CCCCC2)c1 (centres unmarked) [Example 6, 1-Amino-3-(3-(cyclohexylmethoxy)phenyl)propan-2-ol] |  |  | IC50 (visual cycle isomerase; [2]): ≤ 1000 nM
6 | NCCOc1cccc(OCC2CCCCC2)c1 [Example 7, 2-(3-(Cyclohexylmethoxy)phenoxy)ethanamine] | 17 |  | ED50 (isomerase): 4.2 mg/kg; IC50 (visual cycle isomerase; [2]): ≤ 1000 nM
7 | NCCOc1cccc(OCc2ccccc2)c1 [Example 8, 2-(3-(Benzyloxy)phenoxy)ethanamine] |  |  | IC50 (visual cycle isomerase): 1000 to 10000 nM
8 | NCCOc1cccc(OCC2CCCCCC2)c1 [Example 9, 2-(3-(Cycloheptylmethoxy)phenoxy)ethanamine] | 6 |  | IC50 (visual cycle isomerase; [2]): ≤ 1000 nM
9 | NCCCc1cccc(OCC2(O)CCCCC2)c1 [Example 10, 1-((3-(3-Aminopropyl)phenoxy)methyl)cyclohexanol] |  |  | IC50 (visual cycle isomerase; [2]): ≤ 1000 nM
10 | NCCCc1cccc(OCC2(O)CCCCCC2)c1 [Example 11, 1-((3-(3-aminopropyl)phenoxy)methyl)cycloheptanol] |  |  | IC50 (visual cycle isomerase; [2]): ≤ 1000 nM
11 | NCCOc1cccc(OCC2(O)CCCCCC2)c1 [Example 18, 1-((3-(2-Aminoethoxy)Phenoxy)Methyl)Cycloheptanol] |  |  | IC50 (visual cycle isomerase): 1000 to 10000 nM
12 | CC(=O)NCCC(O)c1cccc(OCC2CCCCC2)c1 (centres unmarked) [Example 19, N-(3-(3-(cyclohexylmethoxy)phenyl)-3-hydroxypropyl)acetamide] |  |  | IC50 (visual cycle isomerase): 1000 to 10000 nM
13 | CCC(O)(CC)COc1cccc(C(O)CCN)c1 (centres unmarked) [Example 30, 3-((3-(3-Amino-1-hydroxypropyl)phenoxy)methyl)pentan-3-ol] | 57 | ≤ 10 | 
14 | NCCC(O)c1cccc(OCC2CCC2)c1 (centres unmarked) [Example 34, 3-Amino-1-(3-(cyclobutylmethoxy)phenyl)propan-1-ol] |  | ≤ 10 | 
15 | NCCC(O)c1cccc(OCC2CCCC2)c1 (centres unmarked) [Example 35, 3-Amino-1-(3-(Cyclopentylmethoxy)Phenyl)Propan-1-Ol] | 95 | ≤ 10 | 
16 | CCC(CC)COc1cccc(C(O)CCN)c1 (centres unmarked) [Example 45, 3-Amino-1-(3-(2-ethylbutoxy)phenyl)propan-1-ol] | 98 | ≤ 10 | 
17 | NCCOc1cccc(OCCc2ccccc2)c1 [Example 47, 2-(3-Phenethoxyphenoxy)ethanamine] | 6 |  | 
18 | NCCC(O)c1cccc(OCC2CC3CCC2C3)c1 (centres unmarked) [Example 48, 3-Amino-1-(3-(bicyclo[2.2.1]heptan-2-ylmethoxy)phenyl)propan-1-ol] | 47 | ≤ 10 | 
19 | CCCC(CCC)COc1cccc([C@H](O)[C@H](C)CN)c1 [Example 55, (1R,2R)-3-Amino-2-methyl-1-(3-(2-propylpentyloxy)phenyl)propan-1-ol] | 82 | ≤ 10 | 
20 | C[C@H](CN)[C@@H](O)c1cccc(OCC2CCCC2)c1 [Example 56, (1R,2R)-3-Amino-1-(3-(cyclopentylmethoxy)phenyl)-2-methylpropan-1-ol] | 10 | ≤ 10 | 

Row | SMILES | inhibition at 1 mg/kg (isomerase) [%] | IC50 [1] [nM] | other results
21 | CCC(CC)COc1cccc([C@H](O)[C@H](C)CN)c1 [Example 72, (1R,2R)-3-Amino-1-(3-(2-ethylbutoxy)phenyl)-2-methylpropan-1-ol] | 13 | ≤ 10 | 
22 | C[C@@H](CN)[C@H](O)c1cccc(OCC2CCCCC2)c1 [Example 73, (1S,2S)-3-Amino-1-(3-(Cyclohexylmethoxy)Phenyl)-2-Methylpropan-1-Ol] | 23 |  | 
23 | C[C@H](CN)[C@@H](O)c1cccc(OCC2CCCCC2)c1 [Example 74, (1R,2R)-3-Amino-1-(3-(Cyclohexylmethoxy)Phenyl)-2-Methylpropan-1-Ol] | 6 | ≤ 10 | 
24 | COCCOCCOCC(=O)NCCC(O)c1cccc(OCC2CCCCC2)c1 (centres unmarked) [Example 77, N-(3-(3-(Cyclohexylmethoxy)phenyl)-3-hydroxypropyl)-2-(2-(2-methoxyethoxy)ethoxy)acetamide] | 22 |  | 
25 | CCCCCOc1cccc(C(O)CCN)c1 (centres unmarked) [Example 87, 3-Amino-1-(3-(pentyloxy)phenyl)propan-1-ol] |  | ≤ 10 | 
26 | COCCCCOc1cccc(C(O)CCN)c1 (centres unmarked) [Example 88, 3-Amino-1-(3-(4-methoxybutoxy)phenyl)propan-1-ol] | 78 | ≤ 10 | 
27 | CC(C)CCOc1cccc(C(O)CCN)c1 (centres unmarked) [Example 107, 3-Amino-1-(3-(isopentyloxy)phenyl)propan-1-ol] | 62 |  | 
28 | Cc1ccc(COc2cccc(CCCN)c2)cc1 [Example 119, 3-(3-(4-Methylbenzyloxy)phenyl)propan-1-amine] |  |  | IC50 (μM) [1]: No detectable
29 | NCCCc1cccc(OCc2ccc(Cl)cc2)c1 [Example 120, 3-(3-(4-Chlorobenzyloxy)phenyl)propan-1-amine] |  |  | IC50 (μM) [1]: No detectable
30 | COc1ccc(COc2cccc(CCCN)c2)cc1 [Example 121, 3-(3-(4-Methoxybenzyloxy)phenyl)propan-1-amine] |  |  | IC50 (μM) [1]: No detectable
31 | NCCS(=O)(=O)c1cccc(OCC2CCCCC2)c1 [Example 125, 2-(3-(Cyclohexylmethoxy)phenylsulfonyl)ethanamine] | 4 |  | 
32 | N=C(N)CC(O)c1cccc(OCC2CCCCC2)c1 (centres unmarked) [Example 130, 3-(3-(Cyclohexylmethoxy)phenyl)-3-hydroxypropanimidamide] | 3 |  | 
33 | NCCOc1cccc(OCCO)c1 [Example 141, 2-(3-(2-Aminoethoxy)phenoxy)ethanol] |  |  | IC50 (μM) [1]: No detectable
34 | NCCC(O)c1cccc(OCC2CCC(F)(F)CC2)c1 (centres unmarked) [Example 169, 3-Amino-1-(3-((4,4-difluorocyclohexyl)methoxy)phenyl)propan-1-ol] |  | ≤ 10 | 
35 | COC(=O)c1cc(CCCN)cc(OCC2CCCCC2)c1 [Example 170, Methyl 3-(3-aminopropyl)-5-(cyclohexylmethoxy)benzoate] |  | > 10000 | 
36 | NCC[C@@H](O)c1cccc(OC[C@H]2CC[C@@H](O)CC2)c1 [Example 171, (1,4-Cis)-4-((3-((R)-3-Amino-1-Hydroxypropyl)Phenoxy)Methyl)Cyclohexanol] |  | ≤ 10 | 
37 | NCC[C@@H](O)c1cccc(OC[C@H]2CC[C@H](O)CC2)c1 [Example 172, (1,4-Trans)-4-((3-((R)-3-Amino-1-Hydroxypropyl)Phenoxy)Methyl)Cyclohexanol] |  | ≤ 10 | 
38 | NCC[C@@H](O)c1cccc(OC[C@@H]2CCCC[C@H]2O)c1 [Example 175, (1,2-trans)-2-((3-((R)-3-Amino-1-hydroxypropyl)phenoxy)methyl)cyclohexanol] |  | ≤ 10 | 
39 | NCC[C@@H](O)c1cccc(OC[C@H]2CCCC[C@H]2O)c1 [Example 176, (1,2-cis)-2-((3-((R)-3-Amino-1-hydroxypropyl)phenoxy)methyl)cyclohexanol] |  | ≤ 10 | 
40 | CN(C)CCC(=O)c1cccc(OCC2CCCCC2)c1 [Example 182, 1-(3-(Cyclohexylmethoxy)phenyl)-3-(dimethylamino)propan-1-one] |  | > 10000 | 

Reference: patent publication US10188615B2, “Alkoxy compounds for disease treatment” (Acucela Inc., priority 2007, dated 2019)
